Assays:
[1] = Breaking strength test on dog hair (Example 36)
Method: Dog hair samples 11 to 15 were prepared as follows and subjected to a destructive test under the following conditions by the use of Shimadzu Autograph AGS-SOOB (manufactured by Shimadzu Corp.) to measure a breaking strength and a Young's modulus. The breaking strength and Young's modulus data obtained are also graphically represented in FIGS. 4 and 5, respectively.
Dog Hair: A dog hair having a length of about 10 to 15 cm and a diameter of about 0.08 to 0.1 mm, clamped 2 cm from each end.
(§1) Pulling speed: 5.0 cm/min
(§2) Atmosphere: 25° C., 40% RH
Healthy dog hairs collected from around the neck of a 4-year-old male Shetland sheepdog were used. The untreated hair as collected (sample 11) weighing 50 g was treated in the same manner as in Example 31 to prepare samples 12 to 15.

[2] = Young's modulus, breaking strength, elongation and toughness of solvent-damaged human hair (Examples 33, 35); settings: damaged hair of person soaked in treating agent; n=10
Method: (§3) Healthy hair, cut off from a person at a beauty parlor, which had not been permed nor bleached, was used.
Healthy hair (untreated hair, sample 6) was treated with a chloroform-ethanol mixed solvent in the same manner as in Example 31 to prepare sample 7. Samples 8 to 10 were prepared in the same manner as for samples 3 to 5 of Example 31. The breaking strength of each sample was measured by means of Shimadzu Autograph. A Young's modulus was also measured.

[3] = Breaking strength test on solvent-damaged human hair (Example 31); settings: damaged (chloroform/ethanol-treated) hair of person soaked in treating agent; 25° C., 40% RH; average n = 10
Method: Hair samples 1 to 5 were prepared and subjected to a destructive test under the following conditions by the use of Shimadzu Autograph AGS-500B (manufactured by Shimadzu Corp.) to measure a breaking strength.
Hair: A hair having a length of about 15 cm and a diameter of about 0.08 to 0.1 mm, clamped 5.7 cm from each end.
as §1, §2, §3
The healthy hair (untreated hair, sample 1) weighing 50 g was soaked in 450 ml of a 2:1 (by volume) mixture of chloroform and ethanol and subjected to ultrasonication for 15 minutes to remove lipids. The sample was washed with 250 ml of a 2:1 (by volume) mixture of chloroform and ethanol and then with 100 ml of acetone and dried to prepare solvent-treated hair as damaged hair (sample 2).
The solvent-treated hair weighing 40 g was soaked in a 5-fold weight of each of the blank treating agent of Comparative Example 1, the racemate-containing treating agent of Comparative Example 2, and the keratin fiber strengthening agent of Example 1 and subjected to ultrasonication for 15 minutes, followed by washing with five 1000 ml portions of water. The treated hair was dried under reduced pressure at 60° C. 2 hours and then under reduced pressure for 3 hours to prepare samples 3 to 5, respectively.

[4] = Breaking strength test, elongation and toughness of solvent-damaged human hair (Example 38)
Method: Samples (Samples 16 to 19) were prepared as described below and breaking strength test and measurement of elongation were carried out under the below-described measuring conditions by using Shimadzu Autograph AGS0599B (manufactured by Simadzu Corp). Based on the results, toughness (breaking strength×elongation) of each of Samples 16 to 19 was calculated.
Relative humidity: 40%, temperature: 25° C.
Hair employed for the test: A hair having a length of about 15 cm and a diameter of about 0.08 to 0.1 mm, clamped 5.0 cm from each end.
as §1
(b) Preparation of Samples (Samples 16 to 19)
as §3
The healthy hair (untreated hair, Sample 16) weighing 50 g was soaked in 450 ml of a 2:1 mixture of chloroform and ethanol and subjected to ultrasonication for 15 minutes to remove lipid components. The sample was then washed with 250 ml of a 2:1 mixture of chloroform and ethanol and then with 100 ml of acetone, followed by drying under reduced pressure, whereby organic-solvent-treated hair (Sample 17) was obtained.
The solvent-treated hair (Sample 17) weighing 40 g was soaked in a 5-fold weight of each of the treating agents and subjected to ultrasonication for 15 minutes. The hair was then washed five times with 1000 ml of water, followed by drying at 60° C. for 2 hours under reduced pressure and then drying for 3 hours under reduced pressure, whereby each of Samples 18 to 19 were obtained. Described specifically, Sample 18 was the hair treated with the treating agent (placebo treating agent), which had been prepared in Comparative Example 3, subsequent to the treatment with a solvent, while Sample 19 was the hair treated with the keratin fiber strengthening agent of the present invention (Compound-6-containing treating agent) which had been prepared in […].
The differences of the samples are summarized as follows.
Sample 16: Healthy hair (untreated)
Sample 17: Hair treated with the solvent
Sample 18: Hair treated with the solvent and then with the placebo treating agent prepared in Comparative Example
Sample 19: Hair treated with the solvent and then with the keratin fiber strengthening agent of the present invention (Compound-6-containing treating agent) prepared in Example 31

[5] = damaged dog hair soaked in treating agent, n = 10
[6] = solvent-treated hair of person soaked in treating agent, mean n=10

Structure (SMILES) | Breaking Strength per area ([1]; damaged dog hair soaked in treating agent) [kgf/mm^2] | Breaking Strength [1, 5] [kgf] | Young's Modulus [1, 5] [kgf/mm^2] | Improvements on breaking strength and Young's modulus, in words ([1]; not only human hair but dog hair) | Breaking Strength [2] [kgf] | Elongation [2] [mm] | Toughness (product of breaking strength and elongation) [2] [kgf × mm] | Breaking Strength [3] [kgf] | Breaking strength of hair as compared with the placebo treating agent, in words ([4]; P<0.05 vs Sample 18) | Breaking Strength [4, 6] [Kgf] | Elongation [4, 6] [mm] | Toughness (breaking strength×elongation) [4, 6] [kgf·mm]
CCCCCCCCCCCCCCCCCC(=O)N[C@@H](CO)[C@H](O)CCCCCCCCCCCCCCC [Compound 1, (2S,3R)-2-octadecanoylaminooctadecane-1,3-diol] | 42.55 | 0.1196 | 605.240 | significant improvements | 0.2941 | 27.08 | 7.9642 | 0.2058 | – | – | – | –
CCCCCCCCCCCCCCC[C@@H](O)[C@H](CO)NC(=O)C(O)CCCCCCCCCCCCCC (stereo partly drawn) [Compound 6, (2S,3R)-2-(2-hydroxyhexadecanoyl)aminooctadecane-1,3-diol] | – | – | – | – | – | – | – | – | significantly increases | 0.266 | 26.02 | 6.921
